These results are taken from the supplement of paper PMC4649846.

Each structure is given as a SMILES string.

Assay [1] has as its system MDA-MB-231. As to conditions: incubation time: 72 h. The gist of the method:
(§1)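 MDA-MB-231 cells were transfected with siRNA against BRCA1 or with non-targeting control siRNA, and a day later were seeded at 4000 cells per well into 384-well plates containing compounds at 5 concentrations. Plates were kept for 72 h at 37 °C and 5% CO2, after which viability was measured by CellTiter-Blue fluorescence. Logistic dose–response fits in Dotmatics Studies gave the IC50 and the drug sensitivity score, the latter being curve area relative to a reference area and normalised by log of top response.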

Assay [2] deals with MDA-MB-231. Briefly: drug sensitivity score (DSS); higher = more sensitive; extreme values may be limits of the assay. To be noted: incubation time: 72 h. The gist of the method:
as §1

Where [3] appears, read: siRNA: siControl (non-targeting).

Take `CO[C@@]12[C@H](COC(N)=O)C3=C(C(=O)C(C)=C(N)C3=O)N1C[C@@H]1N[C@@H]12` [Mitomycin C]: the “IC50 of cell viability” value in the assay on MDA-MB-231 [1] (siRNA: siBRCA1) and with MDA-MB-231 [1] (setting [3]) was over 4170 nM each time. For the same compound, the drug sensitivity score in the assay on MDA-MB-231 [2] (siRNA: siBRCA1) and in the assay on MDA-MB-231 [2] (setting [3]) was 0 throughout.
Regarding `Clc1ccc(C(c2ccccc2Cl)C(Cl)Cl)cc1` (stereo not drawn) [Mitotane], the “IC50 of cell viability” value in the assay on MDA-MB-231 [1] (siRNA: siBRCA1) and with MDA-MB-231 [1] (setting [3]) was over 4170 nM throughout. Further, the drug sensitivity score is 1.03 in the assay on MDA-MB-231 [2] (siRNA: siBRCA1) and 0 in the assay with MDA-MB-231 [2] (setting [3]).
Take `O=C1c2c(O)ccc(O)c2C(=O)c2c(NCCNCCO)ccc(NCCNCCO)c21` [Mitoxantrone]: the results for the “IC50 of cell viability” value in the assay on MDA-MB-231 [1] (siRNA: siBRCA1) and in the assay on MDA-MB-231 [1] (setting [3]) were 143 nM and 134 nM, respectively. The values for the drug sensitivity score in the assay with MDA-MB-231 [2] (siRNA: siBRCA1) and with MDA-MB-231 [2] (setting [3]) were 19.5 and 19.9, respectively.
As to `CC1(C)CNc2cc(NC(=O)c3cccnc3NCc3ccncc3)ccc21` [Motesanib], the “IC50 of cell viability” value with MDA-MB-231 [1] (siRNA: siBRCA1) and in the assay with MDA-MB-231 [1] (setting [3]) was over 4170 nM throughout. For the same compound, the drug sensitivity score in the assay with MDA-MB-231 [2] (siRNA: siBRCA1) and in the assay with MDA-MB-231 [2] (setting [3]) was 0 each time.
With `CCNC(=O)c1noc(-c2cc(C(C)C)c(O)cc2O)c1-c1ccc(CN2CCOCC2)cc1` [NVP-AUY922], the “IC50 of cell viability” value in the assay with MDA-MB-231 [1] (siRNA: siBRCA1) came to 46.8 nM; in the assay with MDA-MB-231 [1] (setting [3]), 26.6 nM. Also, the drug sensitivity score in the assay with MDA-MB-231 [2] (siRNA: siBRCA1) was found to be 19.6; in the assay with MDA-MB-231 [2] (setting [3]), 23.
The like results for `Cn1c(=O)n(-c2ccc(C(C)(C)C#N)cc2)c2c3cc(-c4cnc5ccccc5c4)ccc3ncc21` [NVP-BEZ235 (Dactolisib)] were, in that order, 8.83 nM, 10.2 nM, 16.9 and 16.6.
In the case of `Cc1c(C(=O)Nc2ccc(N3C[C@@H](C)O[C@@H](C)C3)nc2)cccc1-c1ccc(OC(F)(F)F)cc1` [NVP-LDE225], the “IC50 of cell viability” value with MDA-MB-231 [1] (siRNA: siBRCA1) and in the assay with MDA-MB-231 [1] (setting [3]) was over 4170 nM throughout. Moreover, the drug sensitivity score with MDA-MB-231 [2] (siRNA: siBRCA1) and in the assay with MDA-MB-231 [2] (setting [3]) was 0 throughout.
Take `CC1(C)CCC(c2ccc(Cl)cc2)=C(CN2CCN(c3ccc(C(=O)NS(=O)(=O)c4ccc(N[C@H](CCN5CCOCC5)CSc5ccccc5)c(S(=O)(=O)C(F)(F)F)c4)cc3)CC2)C1` [Navitoclax]: the “IC50 of cell viability” value in the assay on MDA-MB-231 [1] (siRNA: siBRCA1) is 835 nM; in the assay with MDA-MB-231 [1] (setting [3]), 821 nM. Further, the drug sensitivity score in the assay with MDA-MB-231 [2] (siRNA: siBRCA1) was found to be 11; in the assay on MDA-MB-231 [2] (setting [3]), 10.3.
Consider `COc1nc(N)nc2c1ncn2[C@@H]1O[C@H](CO)[C@@H](O)[C@@H]1O` [Nelarabine], for which the “IC50 of cell viability” value with MDA-MB-231 [1] (siRNA: siBRCA1) and with MDA-MB-231 [1] (setting [3]) was over 4170 nM in each case. The drug sensitivity score in the assay with MDA-MB-231 [2] (siRNA: siBRCA1) and in the assay on MDA-MB-231 [2] (setting [3]) was 0 each time.
Regarding `Cc1cn(-c2cc(NC(=O)c3ccc(C)c(Nc4nccc(-c5cccnc5)n4)c3)cc(C(F)(F)F)c2)cn1` [Nilotinib], the “IC50 of cell viability” value in the assay with MDA-MB-231 [1] (siRNA: siBRCA1) and in the assay on MDA-MB-231 [1] (setting [3]) was over 4170 nM each time. The drug sensitivity score in the assay on MDA-MB-231 [2] (siRNA: siBRCA1) and in the assay on MDA-MB-231 [2] (setting [3]) was 0 each time.
As to `CC1(C)NC(=O)N(c2ccc([N+](=O)[O-])c(C(F)(F)F)c2)C1=O` [Nilutamide], the “IC50 of cell viability” value in the assay on MDA-MB-231 [1] (siRNA: siBRCA1) and in the assay with MDA-MB-231 [1] (setting [3]) was over 4170 nM throughout. For the same compound, the drug sensitivity score in the assay with MDA-MB-231 [2] (siRNA: siBRCA1) and in the assay with MDA-MB-231 [2] (setting [3]) was 0 throughout.
`COc1cccc2cc(-c3nc([C@H]4CC[C@H](C(=O)O)CC4)n4ncnc(N)c34)[nH]c12` [OSI-027]: the “IC50 of cell viability” value with MDA-MB-231 [1] (siRNA: siBRCA1) turned out to be 973 nM; with MDA-MB-231 [1] (setting [3]), 1080 nM. Besides, the drug sensitivity score in the assay with MDA-MB-231 [2] (siRNA: siBRCA1) was 7.16; with MDA-MB-231 [2] (setting [3]) it was 7.26.
For `C[C@]1(O)C[C@@H](c2nc(-c3ccc4ccc(-c5ccccc5)nc4c3)c3c(N)nccn32)C1` [OSI-906] the same measures were over 4170 nM, over 4170 nM, 0 and 0.
Take `COC1=CC(c2cc3ccccc3[nH]2)=N/C1=C\c1[nH]c(C)cc1C` [Obatoclax]: the “IC50 of cell viability” value with MDA-MB-231 [1] (siRNA: siBRCA1) was determined as 399 nM; with MDA-MB-231 [1] (setting [3]) it was 355 nM. The drug sensitivity score with MDA-MB-231 [2] (siRNA: siBRCA1) and in the assay with MDA-MB-231 [2] (setting [3]) was 15 throughout.
For the compound `O=C(c1cc(Cc2n[nH]c(=O)c3ccccc23)ccc1F)N1CCN(C(=O)C2CC2)CC1` [Olaparib], the “IC50 of cell viability” value in the assay on MDA-MB-231 [1] (siRNA: siBRCA1) and in the assay with MDA-MB-231 [1] (setting [3]) was over 4170 nM throughout. Moreover, the drug sensitivity score in the assay on MDA-MB-231 [2] (siRNA: siBRCA1) and in the assay with MDA-MB-231 [2] (setting [3]) was 0 throughout.
`CO[C@@H]1[C@H](N(C)C(=O)c2ccccc2)C[C@H]2O[C@]1(C)n1c3ccccc3c3c4c(c5c6ccccc6n2c5c31)C(=O)NC4` [PKC412 (Midostaurin)]: the “IC50 of cell viability” value with MDA-MB-231 [1] (siRNA: siBRCA1) was 517 nM; in the assay on MDA-MB-231 [1] (setting [3]) it was 206 nM. Also, the drug sensitivity score in the assay on MDA-MB-231 [2] (siRNA: siBRCA1) was found to be 11; with MDA-MB-231 [2] (setting [3]), 14.7.
Consider `CCCS(=O)(=O)Nc1ccc(F)c(C(=O)c2c[nH]c3ncc(-c4ccc(Cl)cc4)cc23)c1F` [PLX4032], for which the “IC50 of cell viability” value in the assay on MDA-MB-231 [1] (siRNA: siBRCA1) and in the assay with MDA-MB-231 [1] (setting [3]) was over 4170 nM in each case. The drug sensitivity score in the assay on MDA-MB-231 [2] (siRNA: siBRCA1) and in the assay on MDA-MB-231 [2] (setting [3]) was 0 in each case.
